This note sets out measurements from patent US20140315975A1, “APOPTOSIS-INDUCING AGENT” (NITTO DENKO CORPORATION, priority 2011, published 2014).

Holding throughout (format): cell-based
One data set deals with M7609 cells. The data set can be described thus: Autophagy induction by LC3 immunofluorescence staining. The note with it: 1 to 4 days after transfection (FIG. 10). The protocol: Induction of autophagy by GST-π knockdown was analyzed by immunofluorescence staining with LC3, which is an autophagy-specific marker protein. GST-π knockdown cells obtained by the procedure of Example 1 (2) were plated on a cover slip placed in a 35 mm plastic tissue culture dish so as to give 1×10^5 cells/2 mL. After the medium was aspirated, 4% paraformaldehyde in PBS was added, and incubation was carried out at room temperature for 10 min., thus fixing the cells. Permeabilization of the cells was carried out using 0.5% Triton X-100 in PBS on ice for 5 min. After washing with cold PBS for 10 min., a reaction with anti-LC3B antibody (Invitrogen) diluted with 1% BSA containing PBS was carried out within a humidity chamber at 37° C. for 1 hour. A secondary antibody reaction was carried out using Alexa Fluor488-labeled rabbit antibody (Invitrogen) at 37° C. for 1 hour. Mounting on a slide glass was carried out using Prolong Gold antifade reagent with DAPI, and incubation was carried out at 4° C. for 16 hours. Washing after the antibody reaction was carried out three times using PBS at 37° C. for 5 min. Autophagy-positive cells at the time of examination with a fluorescence microscope were defined as cells having a spot-like LC3 signal present in the cytoplasm.

The subject of data set [1] is K-RAS mutation-positive colon carcinoma cell line M7609. The data set can be described thus: Total cell count after siRNA transfection (hemocytometer). The note with it: after culturing for 4 days, versus no suppression (FIG. 1b). On the procedure: K-RAS mutation-positive colon carcinoma cell line M7609 was cultured in 10% fetal bovine serum (FBS)-containing RPMI-1640 medium at 37° C. under an atmosphere containing 5% CO2. Furthermore, 100 U/mL penicillin and 100 μg/mL streptomycin were added as antibiotics to the medium.
(§1) On the day before transfection, M7609 cells were plated on a 100 mm plastic tissue culture dish using 10% FBS-containing RPMI-1640 medium containing no antibiotic so as to give 1×10^6 cells/10 mL. 600 pmol of GST-π siRNA (SEQ ID No: 1: […], siRNA ID#2385, Ambion) was added to 1 mL of Opti-MEM I Reduced Serum Medium (GIBCO) and mixed gently. […] On the 1st, 2nd, 3rd, and 4th days after transfection with GST-π siRNA, the number of cells was counted, and knockdown of GST-π was examined. Knockdown of GST-π was analyzed by a western blot method as described below.
Western blot analysis of GST-π knockdown was carried out using cells harvested at above-mentioned each point of time after transfection with GST-π siRNA. […] The cell extract thus obtained was subjected to quantitative protein analysis using a Micro BCA Protein Assay Kit (Thermo SCIENTIFIC) (GST-π siRNA transfectant: 4.35 μg/μL, Scramble siRNA transfectant: 4.56 μg/μL). […] A reaction with a chemiluminescent substrate was then carried out at room temperature for 1 min., and then this chemiluminescence was detected using an X-ray film. […]

The subject of another data set is GST-π. The data set can be described thus: Western blot analysis of GST-π knockdown. The settings on record: M7609 cells. The protocol: as §1, with “gently. Subsequently, 35 μL of Lipofectamine RNAiMAX (Invitrogen) was diluted in 1 mL of Opti-MEM I Reduced Serum Medium and mixed gently. The diluted GST-π siRNA and the diluted Lipofectamine RNAiMAX were combined and gently mixed, and then incubated at room temperature for 10 min. During this time, the medium was replaced with 10 mL of Opti-MEM I Reduced Serum Medium. After the 10 min. incubation, the complex between GST-π siRNA and Lipofectamine RNAiMAX was added to the cells and incubated at 37° C. under an atmosphere containing 5% CO2. After 5 hours incubation, it was replaced with 10 mL of 10% FBS-containing RPMI-1640 medium containing no antibiotic.” for “gently.”
Western blot analysis of GST-π knockdown was carried out using cells harvested at above-mentioned each point of time after transfection with GST-π siRNA. […] The cell extract thus obtained was subjected to quantitative protein analysis using a Micro BCA Protein Assay Kit (Thermo SCIENTIFIC) (GST-π siRNA transfectant: 4.35 μg/μL, Scramble siRNA transfectant: 4.56 μg/μL). […] A reaction with a chemiluminescent substrate was then carried out at room temperature for 1 min., and then this chemiluminescence was detected using an X-ray film. Washing between operations was carried out three times by shaking for 5 min using PBS-T. Furthermore, after transfection with siRNA, plating on a 60 mm plastic tissue culture dish was carried out to give 1.0×10^5 cells/5 mL, and the total cell count in the dish was measured using a hemocytometer up to the 4th day.
A general note: Immunoblotting shows a protein as a band on a membrane.

“GST-π siRNA: GST-π siRNA (SEQ ID No: 1: GGGAGGCAAGACCUUCAUUTT, siRNA ID#2385, Ambion) (chemistry not given here)”: in the data set on M7609 cells, the “proportion of autophagy-positive cells (spot-like LC3 signal per 500 cells)” value was “increased rapidly after treatment, peaked on 2nd day, and then decreased”. In data set [1], the number of cells entry was “markedly less”. Besides, the “expression of GST-π” value was “still stably suppressed” in the data set with GST-π (4 days after transfection (FIG. 1b)) and “suppressed” in the data set on GST-π (siRNA transfection, western blot (FIG. 1a)).
